Measurements: PMC4896931, “The discovery of 2-substituted phenol quinazolines as potent RET kinase inhibitors with improved KDR selectivity” (European Journal of Medicinal Chemistry, 2016)
Structures can show the parent of a compound that is named as a salt.

Columns and labels:
[1] = biological target: KDR (Homo sapiens, UniProt P35968)
[2] = Human hepatocyte stability; format: in vitro ADME; conditions: human hepatocytes
[3] = in vitro; conditions: mouse
[4] = biological target: T1, BaF3 cells expressing KIF5B-RET (Homo sapiens, UniProt P07949+P33176)
T1 sequence (P33176+P07949 with tags, fused parts or gaps): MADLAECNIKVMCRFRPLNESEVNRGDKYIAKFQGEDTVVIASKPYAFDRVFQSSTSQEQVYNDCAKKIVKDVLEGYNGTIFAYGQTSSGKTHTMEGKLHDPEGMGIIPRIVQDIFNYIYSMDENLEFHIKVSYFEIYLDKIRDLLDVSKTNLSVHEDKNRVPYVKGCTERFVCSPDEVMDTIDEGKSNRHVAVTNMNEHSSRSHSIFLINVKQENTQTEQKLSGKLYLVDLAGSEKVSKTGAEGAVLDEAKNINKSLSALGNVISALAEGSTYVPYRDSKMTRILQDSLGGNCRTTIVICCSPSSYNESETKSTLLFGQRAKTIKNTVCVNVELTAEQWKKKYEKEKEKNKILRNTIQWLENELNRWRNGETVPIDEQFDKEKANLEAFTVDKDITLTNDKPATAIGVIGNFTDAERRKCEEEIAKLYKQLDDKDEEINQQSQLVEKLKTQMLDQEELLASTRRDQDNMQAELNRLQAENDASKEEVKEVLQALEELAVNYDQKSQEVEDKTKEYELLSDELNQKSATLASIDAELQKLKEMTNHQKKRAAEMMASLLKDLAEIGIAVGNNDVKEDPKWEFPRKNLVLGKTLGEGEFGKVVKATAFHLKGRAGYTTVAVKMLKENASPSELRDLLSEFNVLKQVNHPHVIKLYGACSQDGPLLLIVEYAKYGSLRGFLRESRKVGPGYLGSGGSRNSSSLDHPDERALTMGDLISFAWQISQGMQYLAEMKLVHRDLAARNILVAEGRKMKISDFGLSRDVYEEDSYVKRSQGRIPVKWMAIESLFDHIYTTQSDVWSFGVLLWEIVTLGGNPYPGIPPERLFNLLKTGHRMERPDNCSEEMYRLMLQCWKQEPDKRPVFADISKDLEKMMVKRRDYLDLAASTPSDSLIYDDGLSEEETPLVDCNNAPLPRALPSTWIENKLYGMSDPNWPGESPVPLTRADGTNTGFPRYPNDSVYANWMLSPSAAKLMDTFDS

[5] = Mouse hepatocyte stability; format: in vitro ADME; conditions: mouse hepatocytes
[6] = Aqueous solubility; format: physicochemical; conditions: aqueous medium (not further specified)
[7] = Caco-2 permeability; format: in vitro ADME; conditions: human; Caco-2 cells
[8] = Mouse pharmacokinetics (intravenous and oral); format: in vivo, male CD-1 mice
Protocol: All studies were conducted after review by the Animal Welfare and Ethical Review Body at CRUK:MI and in accordance with the University of Manchester Policy on the use of animals in research. All work was carried out in compliance with the Animals (Scientific Procedures) Act 1986. Pharmacokinetics were studied in male CD-1 mice following single intravenous or oral administration. Blood samples were collected as dried blood spots and assayed following solvent extraction through a phospholipid removal plate followed by LC-MS/MS analysis. The resulting concentration-time data were analysed by non-compartmental methods (PK Solver, Excel Add-In).

[9] = non-modified (wild-type, non RET-driven) BaF3 cells

Sequence of KDR (P35968 20-1356): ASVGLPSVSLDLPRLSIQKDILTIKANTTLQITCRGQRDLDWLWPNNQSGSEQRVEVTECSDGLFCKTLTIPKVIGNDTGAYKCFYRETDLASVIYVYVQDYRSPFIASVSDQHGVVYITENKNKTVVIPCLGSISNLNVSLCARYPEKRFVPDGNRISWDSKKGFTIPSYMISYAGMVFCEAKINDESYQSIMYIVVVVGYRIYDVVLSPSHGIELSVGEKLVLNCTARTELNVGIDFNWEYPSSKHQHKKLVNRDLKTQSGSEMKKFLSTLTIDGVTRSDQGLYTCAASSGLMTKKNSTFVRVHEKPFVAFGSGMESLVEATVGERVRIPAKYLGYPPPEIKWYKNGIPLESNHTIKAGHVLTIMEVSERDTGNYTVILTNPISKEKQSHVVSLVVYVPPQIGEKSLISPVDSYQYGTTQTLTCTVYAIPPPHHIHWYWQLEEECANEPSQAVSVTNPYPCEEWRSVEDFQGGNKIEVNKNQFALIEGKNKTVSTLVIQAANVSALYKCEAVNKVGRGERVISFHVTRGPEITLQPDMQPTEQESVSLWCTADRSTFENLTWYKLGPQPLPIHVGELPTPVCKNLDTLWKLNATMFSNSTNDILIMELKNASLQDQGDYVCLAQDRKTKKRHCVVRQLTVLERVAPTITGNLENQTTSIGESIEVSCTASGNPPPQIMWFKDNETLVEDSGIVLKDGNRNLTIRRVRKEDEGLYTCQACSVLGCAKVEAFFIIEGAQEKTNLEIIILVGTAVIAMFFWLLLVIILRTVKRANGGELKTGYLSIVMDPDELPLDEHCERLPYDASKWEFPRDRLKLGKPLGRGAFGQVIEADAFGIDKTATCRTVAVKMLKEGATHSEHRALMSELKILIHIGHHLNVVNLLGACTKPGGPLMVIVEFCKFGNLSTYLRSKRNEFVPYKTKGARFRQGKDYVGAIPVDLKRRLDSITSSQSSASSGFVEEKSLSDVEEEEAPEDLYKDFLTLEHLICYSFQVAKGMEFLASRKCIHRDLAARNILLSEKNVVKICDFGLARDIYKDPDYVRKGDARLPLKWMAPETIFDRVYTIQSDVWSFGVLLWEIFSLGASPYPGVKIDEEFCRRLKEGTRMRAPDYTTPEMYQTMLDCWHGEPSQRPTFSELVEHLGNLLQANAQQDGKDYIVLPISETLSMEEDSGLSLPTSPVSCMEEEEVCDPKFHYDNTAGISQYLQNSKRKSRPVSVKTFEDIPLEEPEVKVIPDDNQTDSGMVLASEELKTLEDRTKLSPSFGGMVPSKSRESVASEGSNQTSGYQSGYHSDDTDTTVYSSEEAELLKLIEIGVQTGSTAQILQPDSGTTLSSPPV

Structure (SMILES) | IC50 [1] [nM] | hepatocyte CLint [2] [µL/min/1e6 cells] | IC50 [4] [nM] | further results
COc1cc2ncnc(Nc3cccc(O)c3C#N)c2cc1OC [Compound 18, 2-((6,7-Dimethoxyquinazolin-4-yl)amino)-6-hydroxybenzonitrile] | > 10000 | – | – | –
COc1cc2ncnc(Nc3cccc(O)c3Cl)c2cc1OC [Compound 12, 2-Chloro-3-((6,7-dimethoxyquinazolin-4-yl)amino)phenol hydrochloride] | – | 174 | – | IC50 at 48 h [3]: > 10000 nM
COc1cc2ncnc(Nc3cccc(O)c3C)c2cc1OC [Compound 13, 3-((6,7-Dimethoxyquinazolin-4-yl)amino)-2-methylphenol hydrochloride] | – | 28.4 | – | IC50 at 48 h [3]: > 10000 nM
COc1cc2ncnc(Nc3cc(F)cc(O)c3C)c2cc1OC [Compound 35, 3-((6,7-Dimethoxyquinazolin-4-yl)amino)-5-fluoro-2-methylphenol hydrochloride] | – | 54.8 | – | IC50 at 48 h [3, 9]: > 10000 nM
COc1cc2ncnc(Nc3cccc(O)c3OC)c2cc1OC [Compound 15, 3-((6,7-Dimethoxyquinazolin-4-yl)amino)-2-methoxyphenol] | > 10000 | – | – | –
COc1cc2ncnc(Oc3cccc(O)c3)c2cc1OC [Compound 42, 3-((6,7-Dimethoxyquinazolin-4-yl)oxy)phenol] | 150 | – | 620 | –
COc1cc2ncnc(Nc3c(F)ccc(O)c3F)c2cc1OC [Compound 33, 3-((6,7-Dimethoxyquinazolin-4-yl)amino)-2,4-difluorophenol] | 69 | 68.9 | 120 | IC50 at 48 h [3, 9]: > 10000 nM
COc1cc2ncnc(Nc3cccc(O)c3F)c2cc1OC [Compound 14, 3-((6,7-Dimethoxyquinazolin-4-yl)amino)-2-fluorophenol] | 280 | – | – | –
COc1cc2ncnc(Nc3ccc(Br)cc3F)c2cc1OC [Compound 4] | 460 | – | 1700 | –
COc1cc2ncnc(Nc3cc(O)ccc3F)c2cc1OC [Compound 25] | 20 | – | 53 | –
COc1cc2ncnc(Nc3c(F)ccc(O)c3Cl)c2cc1OC [Compound 40, 2-Chloro-3-((6,7-dimethoxyquinazolin-4-yl)amino)-4-fluorophenol] | 1100 | 66.7 | – | IC50 at 48 h [3]: > 10000 nM
COc1cc2ncnc(Nc3cc(O)c(F)cc3F)c2cc1OC [Compound 28] | 9.5 | – | 53 | –
COc1cc2ncnc(Nc3c(Cl)ccc(O)c3Cl)c2cc1OC [Compound 39, 2,4-Dichloro-3-((6,7-dimethoxyquinazolin-4-yl)amino)phenol] | 1400 | – | – | –
COc1cc2ncnc(Nc3cccc(O)c3O)c2cc1OC [Compound 10, 3-((6,7-Dimethoxyquinazolin-4-yl)amino)benzene-1,2-diol hydrochloride] | – | 95.5 | – | IC50 at 48 h [3, 9]: > 10000 nM
COc1cc2ncnc(Nc3cc(O)ccc3Cl)c2cc1OC [Compound 26, 4-Chloro-3-((6,7-dimethoxyquinazolin-4-yl)amino)phenol] | 71 | – | 85 | –
COc1cc2ncnc(Nc3c(Cl)ccc(O)c3F)c2cc1OC [Compound 34, 4-Chloro-3-((6,7-dimethoxyquinazolin-4-yl)amino)-2-fluorophenol] | – | 93.3 | – | IC50 at 48 h [3]: > 10000 nM
COc1cc2ncnc(Nc3cccc(O)c3C(F)(F)F)c2cc1OC [Compound 17, 3-((6,7-Dimethoxyquinazolin-4-yl)amino)-2-(trifluoromethyl)phenol] | > 10000 | – | – | –

Continued, in another order:

IC50 [1] [nM] | hepatocyte CLint [2] [µL/min/1e6 cells] | IC50 [4] [nM] | Structure (SMILES) | further results
7600 | – | – | COc1cc2ncnc(Nc3cccc(N)c3)c2cc1OC [Compound 8] | –
2800 | – | – | COc1cc2ncnc(Nc3ccc(O)cc3)c2cc1OC [Compound 7] | –
4800 | – | – | COc1cccc(Nc2ncnc3cc(OC)c(OC)cc23)c1 [Compound 9] | –
– | 20.9 | – | COc1cc2ncnc(Nc3c(F)ccc(O)c3C)c2cc1OC [Compound 36, 3-((6,7-Dimethoxyquinazolin-4-yl)amino)-4-fluoro-2-methylphenol hydrochloride] | hepatocyte CLint [5]: 38.1 µL/min/1e6 cells; solubility [6]: > 100 µM; Papp [7]: 8.2 ×10⁻⁶ cm/s; Total blood clearance ([8]; intravenous): < 10 % LBF; Oral half-life ([8]; oral): approximately 2 h; bioavailability ([8]; oral): approximately 35%
2.3 | 91.9 | 41 | COc1cc2ncnc(Nc3cc(O)c(C)cc3F)c2cc1OC [Compound 30] | IC50 at 48 h [3, 9]: > 1000 nM
> 10000 | – | 3600 | COc1cc2ncnc(Nc3c(Cl)ccc(O)c3C)c2cc1OC [Compound 37, 4-Chloro-3-((6,7-dimethoxyquinazolin-4-yl)amino)-2-methylphenol] | –
– | 76.9 | – | COc1cc2ncnc(Nc3cccc(O)c3)c2cc1OC [Compound 6] | IC50 at 48 h [3, 9]: > 10000 nM
58 | – | 940 | COc1cc2ncnc(Nc3ccc(Cl)c(O)c3)c2cc1OC [Compound 21] | –
18 | – | 500 | COc1cc2ncnc(Nc3ccc(C)c(O)c3)c2cc1OC [Compound 20] | –
– | 157 | – | COc1cc2ncnc(Nc3cccc(O)c3Br)c2cc1OC [Compound 11, 2-Bromo-3-((6,7-dimethoxyquinazolin-4-yl)amino)phenol hydrochloride] | IC50 at 48 h [3, 9]: > 10000 nM
